Data as given in ChEMBL document CHEMBL1145715, “Massetolides A-H, antimycobacterial cyclic depsipeptides produced by two pseudomonads isolated from marine habitats” (J Nat Prod, 1997).
≈ marks a conversion by molar mass, not a printed value. Calls of active or inactive are those of the source. The rule behind the calls is not given here.

Experiments:
Escherichia coli = assay: Antibacterial activity against Escherichia coli by middle-brook 7H10 agar proportion method; format: functional, organism-based
Staphylococcus aureus = assay: Antibacterial activity against Staphylococcus aureus by middle-brook 7H10 agar proportion method; format: functional, organism-based
[1] = system: Mycobacterium tuberculosis; assay: Antimycobacterial activity against Mycobacterium tuberculosis by middle-brook 7H10 agar proportion method; format: functional
[2] = system: Mycobacterium avium-intracellulare; assay: Antimycobacterial activity against Mycobacterium avium-intracellulare by middle-brook 7H10 agar proportion method; format: functional
Mus musculus = assay: Toxicity in mouse at 10 mg/kg, ip; format: organism-based; parameters: dose 10 mg/kg, route intraperitoneal; conditions: in vivo

Compound	Activity (Escherichia coli)	Activity (Staphylococcus aureus)	MIC [1]	MIC [2]	Activity (Mus musculus)
CCCCCCC[C@H](O)CC(=O)N[C@@H](CC(C)C)C(=O)N[C@H](CCC(=O)O)C(=O)N[C@H]1C(=O)N[C@H]([C@H](C)CC)C(=O)N[C@@H](CC(C)C)C(=O)N[C@H](CO)C(=O)N[C@@H](CC(C)C)C(=O)N[C@H](CO)C(=O)N[C@@H]([C@H](C)CC)C(=O)O[C@@H]1C	inactive	inactive	–	–	–
CCCCCCC[C@H](O)CC(=O)N[C@@H](CC(C)C)C(=O)N[C@H](CCC(=O)O)C(=O)N[C@H]1C(=O)N[C@H]([C@@H](C)CC)C(=O)N[C@@H](CC(C)C)C(=O)N[C@H](CO)C(=O)N[C@@H](CC(C)C)C(=O)N[C@H](CO)C(=O)N[C@@H]([C@@H](C)CC)C(=O)O[C@@H]1C [MASSETOLIDE A]	–	–	5 µg/mL (≈ 4.38 µM)	2.5 µg/mL (≈ 2.19 µM)	Non-toxic
